Laboratory results reported in patent US20260317319A1, “NOVEL ERGOLINES AND METHODS OF TREATING MOOD DISORDERS” (Gilgamesh Pharma Inc., priority 2023, published 2026).
Read-outs that look alike come from different tables or passages of the source.

Key:
5-HT2C receptor = biological target: T1, 5-HT2C receptor (Homo sapiens, UniProt P28335); experiment: cell-based; details: read-out: 5-HT2C % Act @ Max Dose
T1 sequence (P28335 33-458): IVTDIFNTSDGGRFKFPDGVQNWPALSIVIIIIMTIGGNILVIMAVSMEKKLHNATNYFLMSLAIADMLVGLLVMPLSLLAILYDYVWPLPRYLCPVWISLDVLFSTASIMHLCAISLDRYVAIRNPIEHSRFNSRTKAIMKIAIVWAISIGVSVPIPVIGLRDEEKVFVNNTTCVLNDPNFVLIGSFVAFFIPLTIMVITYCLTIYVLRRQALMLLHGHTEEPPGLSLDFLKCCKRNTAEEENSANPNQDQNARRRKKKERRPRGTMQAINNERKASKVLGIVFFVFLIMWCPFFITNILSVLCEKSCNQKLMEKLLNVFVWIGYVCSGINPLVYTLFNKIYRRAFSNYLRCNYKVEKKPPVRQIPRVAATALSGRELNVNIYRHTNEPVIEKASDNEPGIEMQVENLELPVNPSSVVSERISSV

in vitro [1] = type: in vitro ADME, mouse; details: for microsomal CLint: read-out: Intrinsic clearance (Clint); for half-life: read-out: half-life (t1/2)
Description: MLM Stability Pooled MLM from male CD-1 mice (BIOIVT M00501) were used.

5-HT2A receptor [2] = biological target: T2, 5-HT2A receptor (Homo sapiens, UniProt P28223); experiment: cell-based; type: cell-based; details: beta-arrestin recruitment; for Emax: agonist, max dose, read-out: 5-HT2A Arrestin % Act @ Max Dose
T2 sequence (P28223 whole entry, the tested form may be a part): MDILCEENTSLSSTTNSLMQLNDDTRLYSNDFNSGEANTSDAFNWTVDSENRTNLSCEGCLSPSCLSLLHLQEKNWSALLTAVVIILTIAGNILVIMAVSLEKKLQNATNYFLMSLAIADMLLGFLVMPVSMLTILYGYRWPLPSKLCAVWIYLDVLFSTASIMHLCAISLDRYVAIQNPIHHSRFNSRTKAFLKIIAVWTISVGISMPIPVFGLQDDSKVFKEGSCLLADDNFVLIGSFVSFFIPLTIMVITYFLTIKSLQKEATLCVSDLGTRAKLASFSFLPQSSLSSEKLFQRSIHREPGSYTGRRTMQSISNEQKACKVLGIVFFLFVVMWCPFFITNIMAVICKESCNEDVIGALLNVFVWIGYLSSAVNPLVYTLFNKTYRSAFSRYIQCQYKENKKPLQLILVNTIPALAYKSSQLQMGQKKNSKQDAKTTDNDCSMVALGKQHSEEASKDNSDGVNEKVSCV
Outline: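 Agonist activity expressed as percent of maximal control ligand signal after vehicle subtraction, from chemiluminescence (RLU). Cells carry ProLink-tagged 5-HT2A plus β-arrestin fused to β-gal deletion mutant; ligand-driven arrestin binding restores β-galactosidase activity (PathHunter). Cells pre-incubated at 37° C.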

5-HT2B receptor [3] = biological target: T3, 5-HT2B receptor (Homo sapiens, UniProt P41595); experiment: cell-based; type: cell-based; details: for Emax: HEK293, agonist, HEK293, max dose, read-out: 5-HT2B % Act @ Max Dose; for Emax / EC50: Ca2+ flux; for EC50: agonist, HEK293
T3 construct: expressed in transfected cells; host or cells: HEK293, stably transfected
T3 sequence (P41595 whole entry): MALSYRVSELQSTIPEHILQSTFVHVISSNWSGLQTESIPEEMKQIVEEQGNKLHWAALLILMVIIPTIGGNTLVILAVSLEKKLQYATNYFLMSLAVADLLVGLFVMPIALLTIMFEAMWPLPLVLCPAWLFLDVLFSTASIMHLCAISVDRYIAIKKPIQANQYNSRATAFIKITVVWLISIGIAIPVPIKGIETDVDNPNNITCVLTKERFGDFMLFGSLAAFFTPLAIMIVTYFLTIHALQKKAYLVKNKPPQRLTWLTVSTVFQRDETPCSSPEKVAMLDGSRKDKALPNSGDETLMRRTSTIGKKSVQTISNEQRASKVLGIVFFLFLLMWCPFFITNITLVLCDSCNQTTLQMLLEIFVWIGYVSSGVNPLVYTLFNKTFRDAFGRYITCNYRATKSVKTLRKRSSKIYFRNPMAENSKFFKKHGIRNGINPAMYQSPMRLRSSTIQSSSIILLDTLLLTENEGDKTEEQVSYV
Outline: (§1)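 FLIPR Tetra fluorescence read-out of calcium flux after compound addition. Receptor-expressing stable lines were used (HEK293 for 2A/2B; CHO with Gα15 for 1A), dye-loaded with Fluo-4 Direct and 2.5 mM final probenecid, 50 min at 37 °C.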

C57BL/6 mice = experiment: Mouse head twitch response (HTR) assay (observer-counted); type: in vivo; details: SC; for HTR at most efficacious dose (bound): 20 min
Description: Agonists of the 5-HT2A receptor are well known to induce this effect in rodents and the potency of this HTR is correlated with hallucinogenic potency in humans.
Animals. Adult male C57BL/6 mice, aged 6-8 weeks (body weight 20-25 g) were used in this experiment. Animals were housed under controlled temperatures and 12-hour light/dark cycles (lights on between 07:00-19:00 h), with ad libitum food and water. This study was carried out in strict accordance with the requirements of the Committee for the Purpose of Control and Supervision of Experiments on Animals (CPCSEA), India. All efforts were made to minimize suffering.
Procedure. Mice were administered one dose of the drug and immediately placed into a small open field for behavioral observation. Animals were observed continuously for 20 mins and the number of head twitches (HTs) were counted by an observer blind to the treatment condition.
Statistical Analysis. The data points shown are the mean±standard error of the mean (SEM). Analysis was performed using GraphPad Prism 6. Curves were fit using a non-linear gaussian distribution to calculate ED50 and Emax values.
Additional disclosed compounds were tested in the mouse head twitch response (HTR) assay according to the procedure described in Example 57 (administered SC). […] Lastly, compounds with much larger benzyl and phenethyl substituents on the amine nitrogen (e.g., 10 and 11) were low efficacy in this assay, consistent with their bias toward arrestin signaling (see Example 55).

5-HT1A receptor = biological target: T4, 5-HT1A receptor (Homo sapiens, UniProt P08908); experiment: cell-based; details: agonist, Ca2+ flux; for Emax: CHO, CHO cells with Gα15, max dose, read-out: 5-HT1A % Act @ Max Dose; for EC50: CHO cells with Gα15
T4 construct: expressed in transfected cells; host or cells: CHO cells, stably transfected
T4 sequence (P08908 1-422): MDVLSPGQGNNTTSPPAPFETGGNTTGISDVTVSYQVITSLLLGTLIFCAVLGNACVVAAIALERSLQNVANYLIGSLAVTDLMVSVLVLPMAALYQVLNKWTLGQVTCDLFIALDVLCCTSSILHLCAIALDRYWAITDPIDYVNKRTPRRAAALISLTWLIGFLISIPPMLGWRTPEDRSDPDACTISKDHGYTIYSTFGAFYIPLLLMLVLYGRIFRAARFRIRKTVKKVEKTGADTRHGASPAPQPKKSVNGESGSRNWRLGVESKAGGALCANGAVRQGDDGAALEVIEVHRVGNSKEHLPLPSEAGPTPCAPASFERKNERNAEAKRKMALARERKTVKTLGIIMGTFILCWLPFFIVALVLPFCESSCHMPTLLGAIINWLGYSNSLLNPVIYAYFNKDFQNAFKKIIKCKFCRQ
Outline: as §1

5-HT2A receptor [4] = biological target: T2, 5-HT2A receptor; experiment: cell-based; type: cell-based; parameters: expressed in transfected cells; host or cells: HEK293, stably transfected; details: Ca2+ flux; for Emax: HEK293, agonist, HEK293, max dose, read-out: 5-HT2A % Act @ Max Dose; for EC50: agonist, HEK293
Outline: as §1

in vitro [5] = type: in vitro ADME, human; details: for microsomal CLint: read-out: Intrinsic clearance (Clint); for half-life: read-out: half-life (t1/2)
in vitro [6] = type: in vitro ADME, rat; details: for microsomal CLint: read-out: Intrinsic clearance (Clint); for half-life: read-out: half-life (t1/2)
Description: RLM Stability Pooled RLM from male Sprague-Dawley rats (Xenotech R1000) were used.

5-HT2B receptor [7] = biological target: T3, 5-HT2B receptor; experiment: 5-HT2B receptor radioligand binding ([3H]LSD); details: read-out: 5-HT2B Receptor Ki
5-HT2A receptor [8] = biological target: T2, 5-HT2A receptor; experiment: biochemical; type: binding; parameters: expressed in transfected cells; host or cells: HEK293, stably transfected; details: [3H]ketanserin 1 nM; HEK293 stable cell line; 1 h, 25 °C
Outline: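 Values reflect [^3H]ketanserin binding competition. Assay conditions were adapted from the literature.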

[9] = agonist, Ca2+ flux, Eurofins DiscoverX protocol, max dose
[10] = mouse, microsomes, MLM (male CD-1) 0.50 mg/mL, NADPH 1 mM, 1 μM compound, pH 7.4, 37° C., 60 min
[11] = human, microsomes, HLM 0.50 mg/mL, NADPH 1 mM, 1 μM compound, pH 7.4, 37° C., 60 min
[12] = rat, microsomes, RLM (male Sprague-Dawley) 0.50 mg/mL, NADPH 1 mM, 1 μM compound, pH 7.4, 37° C., 60 min

| Compound | Emax (5-HT2C receptor; [9]) [%] | stability in MLM (in vitro [1]) | Emax (5-HT2A receptor [2]) [%] | 5-HT2A arrestin agonist class (5-HT2A receptor [2]) | Emax (5-HT2B receptor [3]) [%] | HTR at most efficacious dose (bound) (C57BL/6 mice) [HTR] | Emax (5-HT1A receptor) [%] | Emax (5-HT2A receptor [4]) [%] | stability in HLM (in vitro [5]) | stability in RLM (in vitro [6]) | microsomal CLint (in vitro [1]; [10]) [µL/min/mg] | half-life (in vitro [1]; [10]) [min] | EC50 (5-HT2B receptor [3]) [µM] | EC50 (5-HT1A receptor) [µM] | EC50 (5-HT2A receptor [4]) [nM] | Ki (5-HT2B receptor [7]) [nM] | microsomal CLint (in vitro [5]; [11]) [µL/min/mg] | half-life (in vitro [5]; [11]) [min] | Ki (5-HT2A receptor [8]) [nM] | microsomal CLint (in vitro [6]; [12]) [µL/min/mg] | also measured |
| --- | --- | --- | --- | --- | --- | --- | --- | --- | --- | --- | --- | --- | --- | --- | --- | --- | --- | --- | --- | --- | --- |
| CC[C@@H](C)NC(=O)[C@@H]1C=C2c3cccc4[nH]cc(c34)C[C@H]2N(CC)C1 [Compound 5, (6aR,9R)—N—((R)-sec-butyl)-7-ethyl-4,6,6a,7,8,9-hexahydroindolo[4,3-fg]quinoline-9-carboxamide] | 114 | much lower stability (higher clearance) | 106 | full agonists | 84.8 | > 15 | 108 | 103 | much lower stability (higher clearance) | much lower stability (higher clearance) |  |  |  |  |  |  |  |  |  |  |  |
| CCC[C@@H](C)NC(=O)[C@@H]1C=C2c3cccc4[nH]cc(c34)C[C@H]2N(CCC)C1 [Compound 7, (6aR,9R)—N—((R)-pentan-2-yl)-7-propyl-4,6,6a,7,8,9-hexahydroindolo[4,3-fg]quinoline-9-carboxamide] | 115 | much lower stability (higher clearance) | 110 | full agonists | 94.8 | > 15 | 107 | 94.5 | much lower stability (higher clearance) | much lower stability (higher clearance) |  |  |  |  |  |  |  |  |  |  | half-life (t1/2) (in vitro [1]; MLM (male CD-1) 0.50 mg/mL, NADPH 1 mM, 1 μM compound, pH 7.4, 37° C., 60 min): 0.541 min; selectivity for 5-HT2A over 5-HT2B (5-HT2B receptor [3]; functional, compared to closest N-methyl counterparts Int8, Int11, Int17): more selective for 5-HT2A over 5-HT2B; half-life (t1/2) (in vitro [5]; HLM 0.50 mg/mL, NADPH 1 mM, 1 μM compound, pH 7.4, 37° C., 60 min): 1.65 min; half-life (t1/2) (in vitro [6]; RLM (male Sprague-Dawley) 0.50 mg/mL, NADPH 1 mM, 1 μM compound, pH 7.4, 37° C., 60 min): 1.612 min |
| CCN(CC)C(=O)[C@@H]1C=C2c3cccc4[nH]cc(c34)C[C@H]2N(CC2CCCCC2)C1 [Compound 89, (6aR,9R)-7-(cyclohexylmethyl)-N,N-diethyl-4,6,6a,7,8,9-hexahydroindolo[4,3-fg]quinoline-9-carboxamide] |  |  |  |  | 11.5 |  | 84.4 | 51.8 |  |  | 572 | 2.4 | > 10 | > 100 | 839 | 9.67 | 104 | 13.3 | 1.67 | 244 | half-life (in vitro [6]; [12]): 5.7 min |
| CCN(CC)C(=O)[C@@H]1C=C2c3cccc4[nH]cc(c34)C[C@H]2N(CC2CCCC2)C1 [Compound 90, (6aR,9R)-7-(cyclopentylmethyl)-N,N-diethyl-4,6,6a,7,8,9-hexahydroindolo[4,3-fg]quinoline-9-carboxamide] |  |  |  |  | 12 |  | 76.8 | 55.8 |  |  | 649 | 2.1 | > 10 | 42.6 | 642 | 2.08 | 140 | 9.9 | 2.35 | 370 | half-life (in vitro [6]; [12]): 3.7 min |
| CCC(CC)NC(=O)[C@@H]1C=C2c3cccc4[nH]cc(c34)C[C@H]2N(C)C1 [Int14] |  |  | 44.4 | partial agonists | 9.84 | < 15 | 102 | 93.3 |  |  |  |  |  |  |  |  |  |  |  |  | Emax (5-HT2C receptor): 99.1%; half-life (t1/2) (in vitro [1]; mouse, microsomes, pH 7.4): 6.07 min; half-life (t1/2) (in vitro [5]; human, microsomes, pH 7.4): 17.593 min; half-life (t1/2) (in vitro [6]; rat, microsomes, pH 7.4): 37.988 min |
| CCC[C@@H](C)NC(=O)[C@@H]1C=C2c3cccc4[nH]cc(c34)C[C@H]2N(C)C1 [Int17] |  |  | 38.8 | partial agonists | 25.5 | < 15 | 113 | 91.5 |  |  |  |  |  |  |  |  |  |  |  |  | Emax (5-HT2C receptor): 102%; half-life (t1/2) (in vitro [1]; mouse, microsomes, pH 7.4): 8.252 min; # HTR/20 min at Most Efficacious Dose (C57BL/6 mice; most efficacious dose 0.32 mg/kg): 6.0 HTR/20 min; half-life (t1/2) (in vitro [5]; human, microsomes, pH 7.4): 15.865 min; half-life (t1/2) (in vitro [6]; rat, microsomes, pH 7.4): 27.894 min |
